Drawing on PubChem BioAssay (NCI), this text covers TGI for 13 molecules.

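Five compound concentrations were applied to cells in 96-well plates for 48 hours; endpoints were derived by simple linear interpolation of the resulting dose-response curve. TGI denotes the concentration required for complete inhibition of growth.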 A value given as a limit tells only on which side of the number the result lay.

What all share (assay): DTP human tumour cell line panel, 48 h
Experiment [1] has as its system CCRF-CEM leukemia.
The test system of experiment [2] is SF-539 CNS.
The subject of experiment [3] is A549 NSCLC.
In experiment [4] the test system is HL-60(TB) leukemia.
The subject of experiment [5] is UO-31 renal.
Experiment [6] relates to SW-620 colon.
Experiment [7] concerns OVCAR-3 ovarian.
Experiment [8] relates to SK-MEL-28 melanoma.
Experiment [9] has as its system OVCAR-8 ovarian.
Experiment [10] has as its system SK-MEL-2 melanoma.
Experiment [11] concerns SN12C renal.

With `COc1ccc2c(C(=O)c3cn(CCN4CCOCC4)c4ccccc34)cccc2c1`, the TGI (as a rule, the concentration at which net growth stops) in experiment [1] was 85.5 µM; in experiment [2], over 100 µM; in experiment [3], over 100 µM; in [4] it was 54.3 µM; in [5], over 100 µM; in [6], over 100 µM. Besides, the TGI in experiment [7] was over 25.5 µM; in [8], over 100 µM; in experiment [9], over 100 µM; in experiment [10], over 100 µM; in experiment [11], over 100 µM.
Consider `COc1ccc(C2=C3SC=c4ccccc4=C3ON=C2c2ccccc2)cc1`, for which the TGI in experiment [1], in [2], in experiment [3], in experiment [4], in experiment [5] and in experiment [6] was over 100 µM in each case. The TGI in experiment [7], in experiment [8], in experiment [9], in experiment [10] and in experiment [11] was over 100 µM throughout.
Regarding `CC(=O)O[C@H]1CC[C@@]2(C)C(=CC[C@H]3[C@@H]4C/C(=C\c5ccc(N(C)C)cc5)[C@H](OC(C)=O)[C@@]4(C)CC[C@@H]32)C1`, the TGI was 27.9 µM in experiment [2]; 31.7 µM in experiment [3]; 41.2 µM in experiment [4]; 27.7 µM in experiment [5]; 46.4 µM in experiment [6]; 41.8 µM in experiment [7]. Besides, the TGI in [8] is 32.8 µM; in experiment [9], 23.4 µM; in experiment [10], 22.5 µM; in experiment [11], 37.9 µM.
Turning to `Oc1cn(-c2ccc(Cl)cc2)nc1-c1n[nH]c(=S)n1-c1ccccc1`, the TGI in [2] was 23.1 µM; in experiment [3], 35.6 µM; in experiment [4] it was over 100 µM; in [5], 62.7 µM; in [6], 20.4 µM; in [7], 9.4 µM. Moreover, the concentration for total growth inhibition (TGI) is over 100 µM in experiment [8], 34.6 µM in experiment [9], 52.7 µM in [10] and over 100 µM in experiment [11].
In the case of `COc1ccc(-c2nc3ncccn3c2-c2ccc(SC)cc2)cc1`, the TGI was over 100 µM in [1]; 5.85 µM in [2]; 9.88 µM in [3]; 6.61 µM in experiment [4]; 66.6 µM in experiment [5]; over 100 µM in [6]. Further, the TGI in [7] was 2.09 µM; in experiment [8], over 100 µM; in experiment [9] it was over 100 µM; in [10], over 100 µM; in experiment [11] it was over 100 µM.
Take `CC(=O)NNc1nc(-c2ccc([N+](=O)[O-])cc2)c(C#N)c(=O)n1C`: the TGI in experiment [1] was over 100 µM; in experiment [2], 35.1 µM; in experiment [3], over 100 µM; in experiment [4], 82.6 µM; in experiment [5], over 100 µM; in experiment [6], over 100 µM. The TGI was 31.4 µM in experiment [7]; over 100 µM in [8]; 89.3 µM in experiment [9]; over 100 µM in experiment [10]; over 100 µM in experiment [11].
For the molecule `CN(C)C(=O)/C=C/c1c[nH]c(=O)[nH]c1=O`, the TGI in experiment [1] was over 500 µM; in experiment [2], over 500 µM; in [3], over 500 µM; in experiment [4], over 316 µM; in experiment [5], over 500 µM; in experiment [6], over 500 µM. Besides, the TGI in experiment [7], in [8], in experiment [9], in experiment [10] and in experiment [11] was over 500 µM each time.
Consider `Cc1c2cccc-2c(OCCO)cc2c3ccccc3n(C)c12`, for which the TGI in experiment [1] is 7.53 µM; in experiment [2] it was 5.92 µM; in [3] it was 15.5 µM; in experiment [4], 7.19 µM; in [5], 10.6 µM; in experiment [6] it was 67.3 µM. Further, the TGI in experiment [7] turned out to be 5.56 µM; in experiment [8] it was 21.4 µM; in experiment [9] it was 10.1 µM; in [10], 12.8 µM; in [11], 14.4 µM.
On to `C[C@H]1C(=O)O[C@@H]2CCN3CC=C(COC(=O)[C@](C)(O)[C@@]1(C)O)[C@H]23`, for which the TGI in experiment [1], in [2], in experiment [3], in [4], in experiment [5] and in experiment [6] was over 100 µM each time. For the same molecule, the concentration for total growth inhibition (TGI) in experiment [7], in [8], in experiment [9], in [10] and in experiment [11] was over 100 µM throughout.
Take `COc1cc(/C=C/C(=O)Oc2ccc(NC(C)=O)cc2)ccc1C(=O)O/C=C/c1ccccc1`: the TGI in [1], in experiment [2], in [3], in experiment [4], in [5] and in [6] was over 100 µM throughout. Besides, the TGI in experiment [7], in experiment [8], in [9], in experiment [10] and in [11] was over 100 µM in each case.
In the case of `COc1ccc2c(c1)CCCN2CCCCCCCCCCN(CCC(C)C)CCC(C)C`, the TGI in [1] worked out at 32.9 µM; in [2], 11.1 µM; in experiment [3] it was 26.2 µM; in experiment [4], 9.61 µM; in experiment [5], 10.2 µM; in experiment [6], 26.2 µM. Also, the figures for the TGI in experiment [7], in [8] and in [10] were 17.3 µM, 27.2 µM and 22.8 µM, respectively.
For the molecule `Nc1n[nH]c(=O)c2c1c(I)cn2C1OC(CO)C(O)C1O` (configuration not stated), the TGI in experiment [1] was 4.12 µM; in experiment [3], over 100 µM; in experiment [4] it was 0.348 µM; in [5], 5.86 µM; in experiment [6], over 100 µM; in [7], over 100 µM. The TGI in experiment [8] turned out to be 3.47 µM; in experiment [9], 1.44 µM; in experiment [10], 0.049 µM; in experiment [11] it was 66.1 µM.
On to `COc1ccc(/C(Cl)=C(\C=O)c2ccc(OC)cc2)cc1`, for which the TGI in experiment [1] was over 100 µM; in experiment [2], over 100 µM; in [3] it was over 100 µM; in [4], 80.9 µM; in [5], over 100 µM; in experiment [6], over 100 µM. The TGI in [7], in [9], in experiment [10] and in experiment [11] was over 100 µM each time.
